Structures can show the parent of a compound that is named as a salt.

human PDE9A, sequence (O76083 whole entry): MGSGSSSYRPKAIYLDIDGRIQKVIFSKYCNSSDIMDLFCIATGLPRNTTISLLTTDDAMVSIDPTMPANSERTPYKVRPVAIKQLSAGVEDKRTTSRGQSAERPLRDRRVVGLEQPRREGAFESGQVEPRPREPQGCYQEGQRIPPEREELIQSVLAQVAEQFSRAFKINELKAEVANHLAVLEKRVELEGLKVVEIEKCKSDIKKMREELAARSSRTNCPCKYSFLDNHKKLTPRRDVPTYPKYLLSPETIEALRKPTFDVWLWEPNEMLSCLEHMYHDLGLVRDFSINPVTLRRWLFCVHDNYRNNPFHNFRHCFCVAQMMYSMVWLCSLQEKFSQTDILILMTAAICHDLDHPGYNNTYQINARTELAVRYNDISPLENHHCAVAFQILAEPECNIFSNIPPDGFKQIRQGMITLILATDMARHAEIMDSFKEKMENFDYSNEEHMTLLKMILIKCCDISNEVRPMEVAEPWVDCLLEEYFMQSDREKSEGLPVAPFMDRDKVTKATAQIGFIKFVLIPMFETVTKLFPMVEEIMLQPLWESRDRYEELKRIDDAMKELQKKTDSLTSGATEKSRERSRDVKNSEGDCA

One data set addresses human PDE9A (Homo sapiens (Human), UniProt O76083). As to conditions: concentrations of up to 100 μM; cited from earlier work.
Regarding `CC(C)Cn1c(=O)n(C)c(=O)c2[nH]cnc21` [IBMX], the “inhibition on the isolated enzyme” value was “no inhibition”.

With `CC(=O)Nc1ccc(-c2c[nH]c(=O)cn2)cc1` [SKF94120], the “inhibition on the isolated enzyme” value was “no inhibition”.

For the molecule `OCCN(CCO)c1nc(N2CCCCC2)c2nc(N(CCO)CCO)nc(N3CCCCC3)c2n1` [dipyridamole], the “inhibition on the isolated enzyme” value is recorded as “no inhibition”.

`COc1ccc(C2CNC(=O)C2)cc1OC1CCCC1` (stereo not shown) [rolipram]: the “inhibition on the isolated enzyme” value is reported as “no inhibition”.

In the case of `CCOC(=O)C1=C[C@]2(CC)CCCN3CCc4c(n1c1ccccc41)[C@@H]32` [vinpocetine], the “inhibition on the isolated enzyme” value is given as “no inhibition”.

The target of the next data set is Murine PDE9A (Mus musculus (Mouse), UniProt O70628). The note with it: concentrations below 200 μM; cited from earlier work.
Murine PDE9A, sequence (O70628 whole entry): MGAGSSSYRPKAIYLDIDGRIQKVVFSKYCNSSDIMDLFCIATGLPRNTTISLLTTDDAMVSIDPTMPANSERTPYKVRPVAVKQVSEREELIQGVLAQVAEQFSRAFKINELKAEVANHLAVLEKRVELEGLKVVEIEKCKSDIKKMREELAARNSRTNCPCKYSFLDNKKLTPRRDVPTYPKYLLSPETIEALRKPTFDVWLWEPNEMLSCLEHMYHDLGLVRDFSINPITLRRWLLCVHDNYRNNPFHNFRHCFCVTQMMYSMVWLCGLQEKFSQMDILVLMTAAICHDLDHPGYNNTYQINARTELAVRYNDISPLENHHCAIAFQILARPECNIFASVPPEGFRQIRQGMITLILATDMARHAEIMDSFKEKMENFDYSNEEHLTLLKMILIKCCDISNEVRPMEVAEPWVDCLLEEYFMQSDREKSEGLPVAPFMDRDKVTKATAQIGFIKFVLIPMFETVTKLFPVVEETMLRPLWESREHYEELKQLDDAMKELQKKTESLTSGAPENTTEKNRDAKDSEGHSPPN
For the molecule `CC(C)Cn1c(=O)n(C)c(=O)c2[nH]cnc21` [IBMX], the “inhibition of murine PDE9A” value was “not inhibited”.

System in the next data set: not given
Conditions: not given
A word on the melting point: it is the temperature, or range, at which the solid turns liquid. Regarding `Cc1ccccc1-n1ncc2c(=O)[nH]c(CC3CCCC3)nc21` (as salt: sodium), the melting point amounted to 181 °C.

In turn, `Cc1ccncc1-n1ncc2c(=O)[nH]c(CC3CCCC3)nc21` (as salt: sodium) came in with a melting point of 206 °C.

Consider `CCc1ccccc1-n1ncc2c(=O)[nH]c(CC3C=CCC3)nc21` (stereo not shown) (as salt: sodium) [Example 8, 6-(2-Cyclopenten-1-ylmethyl)-1-(2-ethylphenyl)-1,5-dihydro-4H-pyrazolo[3,4-d]pyrimidin-4-one], for which the melting point worked out at 146 °C.

As to `Cc1ccccc1-n1ncc2c(=O)[nH]c(CC3C=CCC3)nc21` (stereo not shown) (as salt: sodium) [Example 9, 6-(2-Cyclopenten-1-ylmethyl)-1-(2-methylphenyl)-1,5-dihydro-4H-pyrazolo[3,4-d]pyrimidin-4-one], the melting point is 179 °C.

Molecule `Cc1ccccc1-n1ncc2c(=O)[nH]c(CC3CCCCC3)nc21` (as salt: sodium) [Example 10, 6-Cyclohexylmethyl-1-(2-methylphenyl)-1,5-dihydro-4H-pyrazolo[3,4-d]pyrimidin-4-one] registered a melting point of 169 °C.

`O=c1[nH]c(CC2C=CCC2)nc2c1cnn2-c1ccccc1C(F)(F)F` (stereo not shown) (as salt: sodium) [Example 14, 6-(2-Cyclopenten-1-ylmethyl)-1-[2-(trifluoromethyl)phenyl]-1,5-dihydro-4H-pyrazolo[3,4-d]pyrimidin-4-one] showed a melting point of 153 °C.

Turning to `O=c1[nH]c(CC2C=CCC2)nc2c1cnn2-c1ccccc1F` (stereo not shown) (as salt: sodium) [Example 15, 6-(2-Cyclopenten-1-ylmethyl)-1-(2-fluorophenyl)-1,5-dihydro-4H-pyrazolo[3,4-d]pyrimidin-4-one], the melting point came out at 163 °C.

`O=c1[nH]c(CC2C=CCC2)nc2c1cnn2-c1ccccc1Cl` (stereo not shown) (as salt: sodium) [Example 16, 6-(2-Cyclopenten-1-ylmethyl)-1-(2-chlorophenyl)-1,5-dihydro-4H-pyrazolo[3,4-d]pyrimidin-4-one]: the melting point came to 150 °C.

Molecule `O=c1[nH]c(CC2C=CCC2)nc2c1cnn2-c1ccccn1` (stereo not shown) (as salt: sodium) [Example 17, 6-(2-Cyclopenten-1-ylmethyl)-1-(2-pyridinyl)-1,5-dihydro-4H-pyrazolo[3,4-d]pyrimidin-4-one] came in with a melting point of 239 °C.

For the molecule `COc1ccccc1-n1ncc2c(=O)[nH]c(CC3C=CCC3)nc21` (stereo not shown) (as salt: sodium) [Example 18, 6-(2-Cyclopenten-1-ylmethyl)-1-(2-methoxyphenyl)-1,5-dihydro-4H-pyrazolo[3,4-d]pyrimidin-4-one], the melting point was 182 °C.

Take `CC(C)Cc1nc2c(cnn2-c2ccccc2Cl)c(=O)[nH]1` (as salt: sodium) [Example 40, 1-(2-Chlorophenyl)-6-(2-methylpropyl)-1,5-dihydro-4H-pyrazolo[3,4-d]pyrimidin-4-one]: the melting point was 204 °C.

Regarding `CCC(CC)Cc1nc2c(cnn2-c2cnccc2C)c(=O)[nH]1` (as salt: sodium) [Example 41, 6-(2-Ethylbutyl)-1-(4-methylpyridin-3-yl)-1,5-dihydro-4H-pyrazolo[3,4-d]pyrimidin-4-one], the melting point came to 143 °C.

As for `Cc1ccncc1-n1ncc2c(=O)[nH]c(CC3CCCCC3)nc21` (as salt: sodium) [Example 43, 6-Cyclohexylmethyl-1-(4-methylpyridin-3-yl)-1,5-dihydro-4H-pyrazolo[3,4-d]pyrimidin-4-one], the melting point turned out to be 206 °C.

As for `CCC(C)Cc1nc2c(cnn2-c2ccccc2C)c(=O)[nH]1` (racemic) (as salt: sodium) [Example 35, 6-(2-Methylbutyl)-1-(2-methylphenyl)-1,5-dihydro-4H-pyrazolo[3,4-d]pyrimidin-4-one], the melting point stood at 132 °C.

Take `Cc1ccccc1-n1ncc2c(=O)[nH]c(CC(C)C(F)(F)F)nc21` (racemic) (as salt: sodium) [Example 36, 1-(2-Methylphenyl)-6-(3,3,3-trifluoro-2-methylpropyl)-1,5-dihydro-4H-pyrazolo[3,4-d]pyrimidin-4-one]: the melting point came to 160 °C.

As for `CCC(C)Cc1nc2c(cnn2-c2cnccc2C)c(=O)[nH]1` (racemic) (as salt: sodium) [Example 39, 6-(2-Methylbutyl)-1-(4-methylpyridin-3-yl)-1,5-dihydro-4H-pyrazolo[3,4-d]pyrimidin-4-one], the melting point is 149 °C.

Source of the values: patent US8822479B2, “6-cyclylmethyl-and 6-alkylmethyl-substituted pyrazolepyrimidines” (Boehringer Ingelheim International GmbH, priority 2003, dated 2014).
